Reference: patent US20020038028A1, “7-Hetero-bicyclo[2.2.1]-heptanes” (priority 1998, published 2002)

melting point	SMILES
198.5 to 201 °C	Cl.N=C(N)c1ccc(C2CC3CCC2N3)cc1 (centres unmarked)
242.5 to 244 °C	Cl.Oc1ccc(C2CC3CCC2N3)cc1 (centres unmarked)
261.5 to 264.5 °C	Cl.O=C(O)c1ccc(C2CC3CCC2N3)cc1 (centres unmarked)

More lines, now with the values behind:

SMILES	melting point
CSc1ccc(C2CC3CCC2N3)cc1.Cl (centres unmarked)	216.5 to 218 °C
COC(=O)c1ccc(C2CC3CCC2N3)cc1.Cl (centres unmarked)	235 to 236 °C
